pEC50: −log10 of the molar value. Active and inactive are the calls of the source. The rule behind the calls is not given here.
Key:
[1] = biological target: T1, Peroxisome proliferator-activated receptor alpha (Homo sapiens) (UniProt Q07869); assay: Transactivation of human PPARalpha LBD expressed in african green monkey Cos7 cells co-transfected with fused GAL4-DBD at 10 uM after 14 hrs by Dual-Glo Luciferase reporter gene assay; format: cell-based; conditions: COS-7
T1 sequence (whole entry): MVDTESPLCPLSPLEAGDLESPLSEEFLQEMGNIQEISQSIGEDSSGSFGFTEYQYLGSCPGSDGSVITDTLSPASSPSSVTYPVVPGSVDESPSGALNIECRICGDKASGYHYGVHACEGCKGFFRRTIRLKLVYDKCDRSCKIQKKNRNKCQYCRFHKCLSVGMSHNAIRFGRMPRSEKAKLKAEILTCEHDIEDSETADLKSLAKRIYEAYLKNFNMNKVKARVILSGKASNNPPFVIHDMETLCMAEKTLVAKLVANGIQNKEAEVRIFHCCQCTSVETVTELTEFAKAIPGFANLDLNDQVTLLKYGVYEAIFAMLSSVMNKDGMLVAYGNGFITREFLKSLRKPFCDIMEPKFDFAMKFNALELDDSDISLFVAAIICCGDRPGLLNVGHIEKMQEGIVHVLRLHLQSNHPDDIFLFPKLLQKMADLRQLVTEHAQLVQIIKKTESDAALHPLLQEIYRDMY

[2] = biological target: T2, Peroxisome proliferator-activated receptor gamma (Homo sapiens, UniProt P37231)
T2 sequence (P37231 whole entry): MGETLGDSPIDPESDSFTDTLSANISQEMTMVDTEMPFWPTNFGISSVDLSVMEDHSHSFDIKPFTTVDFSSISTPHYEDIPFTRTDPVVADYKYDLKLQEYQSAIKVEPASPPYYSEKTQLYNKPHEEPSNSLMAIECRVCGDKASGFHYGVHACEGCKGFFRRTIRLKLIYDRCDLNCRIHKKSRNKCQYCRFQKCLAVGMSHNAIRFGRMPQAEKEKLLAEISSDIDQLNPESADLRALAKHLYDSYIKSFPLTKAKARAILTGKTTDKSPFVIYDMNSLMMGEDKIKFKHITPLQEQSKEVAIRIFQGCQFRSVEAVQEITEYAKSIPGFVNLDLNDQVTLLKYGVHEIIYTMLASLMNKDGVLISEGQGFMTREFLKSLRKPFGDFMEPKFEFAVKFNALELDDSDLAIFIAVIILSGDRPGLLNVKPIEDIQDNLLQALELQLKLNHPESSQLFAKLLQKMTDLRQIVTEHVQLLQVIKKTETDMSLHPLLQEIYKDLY

[3] = biological target: T3, Peroxisome proliferator-activated receptor gamma (Homo sapiens) (UniProt P37231); assay: Agonist activity at human PPARgamma LBD expressed in african green monkey Cos7 cells co-transfected with fused GAL4-DBD after 14 hrs by Dual-Glo Luciferase reporter gene transactivation assay; format: functional, cell-based; conditions: COS-7
T3 sequence (whole entry): T2 sequence (P37231 whole entry)

[4] = biological target: T3, Peroxisome proliferator-activated receptor gamma (Homo sapiens); assay: Transactivation of human PPARgamma LBD expressed in african green monkey Cos7 cells co-transfected with fused GAL4-DBD at 10 uM after 14 hrs by Dual-Glo Luciferase reporter gene assay; format: cell-based; conditions: COS-7
[5] = biological target: T3, Peroxisome proliferator-activated receptor gamma (Homo sapiens); assay: Transactivation of human PPARgamma LBD expressed in african green monkey Cos7 cells co-transfected with fused GAL4-DBD after 14 hrs by Dual-Glo Luciferase reporter gene assay; conditions: COS-7

Structure (SMILES)	Activity [1]	pEC50 [2]	Activity [3]	Activity [4]	Activity [5]
O=C(O)C(Sc1nc(Cl)cc(NCCCc2ccccc2)n1)c1cccc2ccccc12 (stereo not given)	inactive	5.05			
Cc1cccc(Nc2cc(Cl)nc(SC(C(=O)O)c3cccc4ccccc34)n2)c1C (stereo not given)	inactive	5.21	inactive		
O=C(O)C(Sc1nc(Cl)cc(Nc2cccc(Cl)c2)n1)c1cccc2ccccc12 (stereo not given)	inactive	5.14			
O=C(O)C(Sc1nc(Cl)cc(Nc2ccc3c(c2)CCC3)n1)c1cccc2ccccc12 (stereo not given)	inactive	5.17			
Cc1cccc(Nc2cc(Cl)nc(SC(C(=O)O)c3ccc(-c4ccccc4)c4ccccc34)n2)c1C (stereo not given)	inactive	5.35			
Cc1ccc(Nc2cc(Cl)nc(SC(C(=O)O)c3cccc4ccccc34)n2)cc1C (stereo not given)	inactive	5.11			
O=C(O)C(Sc1nc(Cl)cc(Nc2ccc3ccccc3c2)n1)c1cccc2ccccc12 (stereo not given)	inactive	5.16			
CCc1ccc(CCOc2ccc(CC3SC(=O)NC3=O)cc2)nc1 (stereo not given)	inactive				
CC(C)CCNc1cc(Cl)nc(SC(C(=O)O)c2cccc3ccccc23)n1 (stereo not given)	inactive	5.05			
O=C(O)C(Sc1nc(Cl)cc(Nc2ccc(Cl)cc2)n1)c1cccc2ccccc12 (stereo not given)	inactive	5.05			
O=C(O)C(Sc1nc(Cl)cc(NCCc2ccccc2)n1)c1cccc2ccccc12 (stereo not given)	inactive	4.97			
CCCCCCC(Sc1nc(Cl)cc(Nc2cccc(C)c2C)n1)C(=O)O (stereo not given)		5.44			
CC(C)c1ccc(Nc2cc(Cl)nc(SC(C(=O)O)c3cccc4ccccc34)n2)cc1 (stereo not given)	inactive	5.12			
CCCCNc1cc(Cl)nc(SC(C(=O)O)c2cccc3ccccc23)n1 (stereo not given)	inactive			inactive	inactive
O=C(O)C(Sc1nc(Cl)cc(Nc2ccc(F)cc2)n1)c1cccc2ccccc12 (stereo not given)	inactive	4.89			

From ChEMBL document CHEMBL1156182 (Bioorg Med Chem Lett, 2010)
